Values after ≈ are worked out from the molar mass of the structure shown. Values joined by “and” are separate entries in the source; they are usually repeats but may differ in a detail not shown here. Identical values can stand only once. Like-named read-outs stand apart in the source and are kept apart here.
Columns and labels:
[1] = system: S. aureus MSSA (ATCC 29213); test: MIC susceptibility testing; format: cell-based, Staphylococcus aureus; conditions: S. aureus ATCC 29213; for MIC: Staphylococcus aureus, read-out: (F) S. aureus (ATCC 29213) MIC
[2] = system: E. faecium VRE (ATCC 51559); test: MIC susceptibility testing; format: cell-based, Enterococcus faecium; conditions: E. faecium ATCC 51559; for MIC: Enterococcus faecium, read-out: (I) E. faecium (ATCC 51559) MIC
Text: Media and culture conditions. Mueller Hinton broth (MHB), cation adjusted Mueller Hinton broth (CA-MHB), and Brain Heart Infusion broth (BHI) were purchased from Becton Dickinson (Franklin Lakes, N.J.). Tryptic soy agar (TSA) plates, TSA with 5% sheep blood plates, and CA-MHB with 3% laked horse blood were purchased from Remel (San Diego, Calif.). MHB was used to assay all Staphylococcus aureus strains. CA-MHB was used for Staphylococcus epidermidis, Enterococcus faecalis, Enterococcus faecium, Escherichia coli, and Pseudomonas aeruginosa. CA-MHB supplemented with 3% laked horse blood was used for Streptococcus pneumoniae and Streptococcus pyogenes. Staphylococcus, Enterococcus, Escherichia, and Pseudomonas strains were cultured at 37° C. with ambient air. Streptococcus strains were cultured in 37° C. with 5% CO2. Separate conditions for radiolabeled precursor uptake assays are described below.
Susceptibility testing: Minimum inhibitory concentration (MIC) determinations were performed in triplicate in 96-well round bottom microtiter plates (Corning, Corning N.Y.) as described by the Clinical and Laboratory Standards Institute (CLSI). Serial two-fold dilutions of compounds were added to plates in 50 μL volumes. An additional 50 μL of media containing bacterial cells (1×10^6 CFUs/mL) was then added to each well. Maximum DMSO concentrations were 0.5%. Plates were incubated at 37° C. for at least 18 h before reading the susceptibility result by optical absorbance (OD600) using a BioTek ELx800. The lowest concentration causing ≥90% growth inhibition compared to the untreated control was recorded as the MIC (and also corresponded to the visual MIC). MICs were measured at least twice and the higher value (if different) was recorded herein.

[3] = target: T1, MetRS (T. brucei) (Trypanosoma brucei brucei, UniProt Q38C91); test: MetRS (T. brucei) enzyme inhibition; format: biochemical
T1 sequence (Q38C91 1-773): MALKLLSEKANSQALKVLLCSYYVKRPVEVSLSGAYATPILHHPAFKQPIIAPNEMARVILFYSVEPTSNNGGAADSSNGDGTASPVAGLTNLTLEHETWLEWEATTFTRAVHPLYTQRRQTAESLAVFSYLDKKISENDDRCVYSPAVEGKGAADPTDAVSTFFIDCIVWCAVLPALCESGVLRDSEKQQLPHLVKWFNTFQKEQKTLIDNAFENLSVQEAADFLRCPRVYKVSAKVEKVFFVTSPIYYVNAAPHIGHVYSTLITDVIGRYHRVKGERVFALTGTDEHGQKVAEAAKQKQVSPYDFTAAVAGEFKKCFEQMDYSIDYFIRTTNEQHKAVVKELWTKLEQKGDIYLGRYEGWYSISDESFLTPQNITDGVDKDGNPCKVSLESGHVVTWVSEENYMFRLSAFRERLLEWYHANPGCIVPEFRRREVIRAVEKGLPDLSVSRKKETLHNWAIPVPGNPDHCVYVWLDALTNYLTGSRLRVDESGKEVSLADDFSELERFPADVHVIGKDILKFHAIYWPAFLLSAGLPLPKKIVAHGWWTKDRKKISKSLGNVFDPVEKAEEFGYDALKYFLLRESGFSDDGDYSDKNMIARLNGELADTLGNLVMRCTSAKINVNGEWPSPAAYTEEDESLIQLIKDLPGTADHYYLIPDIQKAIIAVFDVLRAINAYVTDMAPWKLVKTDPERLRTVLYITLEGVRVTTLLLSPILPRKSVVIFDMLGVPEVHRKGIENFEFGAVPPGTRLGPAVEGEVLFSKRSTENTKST

[4] = target: MetRS (C. parvum) (Cryptosporidium parvum, UniProt Q5CVN0); test: MetRS (C. parvum) enzyme inhibition; format: biochemical; conditions: read-out: (C) MetRS (C. parvum) IC50
Sequence of MetRS (C. parvum) (Q5CVN0 entry or part of it): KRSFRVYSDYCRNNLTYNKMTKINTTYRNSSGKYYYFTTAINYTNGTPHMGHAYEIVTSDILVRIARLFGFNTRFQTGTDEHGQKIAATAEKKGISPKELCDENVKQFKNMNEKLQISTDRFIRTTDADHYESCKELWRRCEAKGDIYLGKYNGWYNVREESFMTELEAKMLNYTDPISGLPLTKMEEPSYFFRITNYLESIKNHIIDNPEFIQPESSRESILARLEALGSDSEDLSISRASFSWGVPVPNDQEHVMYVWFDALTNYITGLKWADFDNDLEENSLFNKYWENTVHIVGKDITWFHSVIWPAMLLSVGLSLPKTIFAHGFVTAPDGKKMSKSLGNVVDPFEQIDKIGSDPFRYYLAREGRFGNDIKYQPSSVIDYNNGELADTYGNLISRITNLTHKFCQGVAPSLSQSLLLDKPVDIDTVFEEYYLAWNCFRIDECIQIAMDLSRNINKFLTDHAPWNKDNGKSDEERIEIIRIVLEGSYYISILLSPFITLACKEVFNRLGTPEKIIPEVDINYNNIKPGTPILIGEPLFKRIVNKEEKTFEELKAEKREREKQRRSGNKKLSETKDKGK

[5] = system: T. cruzi; test: T. cruzi growth inhibition; format: cell-based, Trypanosoma cruzi; conditions: Trypanosoma cruzi; read-out: (E) T. cruzi EC50
[6] = system: C. parvum; test: C. parvum growth inhibition; format: cell-based, Cryptosporidium parvum; conditions: Cryptosporidium parvum; read-out: (J) C. parvum EC50
[7] = system: S. aureus MRSA (ATCC 33591); test: MIC susceptibility testing; format: cell-based, Staphylococcus aureus; conditions: MRSA ATCC33591; for MIC: Staphylococcus aureus, read-out: (G) MRSA (ATCC33591) MIC
Method in brief: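 CLSI broth microdilution in triplicate, 5×10^5 CFU/mL final, ≤0.5% DMSO; MHB for S. aureus, CA-MHB for E. coli and E. faecium, CA-MHB plus 3% laked horse blood for S. pyogenes (5% CO2).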

[8] = system: T. brucei; test: T. brucei growth inhibition; format: cell-based, Trypanosoma brucei; conditions: read-out: (D) T. brucei EC50

## O=c1n(Cc2nc3ccc(F)nc3[nH]2)cc(Cc2ccc(Cl)cc2Cl)n1C1CC1 [Compound 2070, 3-cyclopropyl-4-[(2,4-dichlorophenyl)methyl]-1-({5-fluoro-1H-imidazo[4,5-b]pyridin-2-yl}methyl)-2,3-dihydro-1H-imidazol-2-one]
[1]
  (F) S. aureus (ATCC 29213) MIC: 0.0371 µg/mL
  MIC: 0.0609 µg/mL (≈ 0.141 µM)
[2]
  MIC: 0.0246 µg/mL (≈ 0.0569 µM)
[3]
  IC50: < 40 nM
[4]
  IC50: < 40 nM
[5]
  EC50: 133 nM
[6]
  EC50: > 2000 nM

## COc1ccc(-c2cncc3nc(Cc4nc5nc(Cl)ccc5[nH]4)cn23)c(Cl)c1 [Compound 2156, 2-({5-chloro-1H-imidazo[4,5-b]pyridin-2-yl}methyl)-5-(2-chloro-4-methoxyphenyl)imidazo[1,2-a]pyrazine]
[7]
  MIC: 0.285 µg/mL (≈ 0.67 µM)
[1]
  (F) S. aureus (ATCC 29213) MIC: 0.946 µg/mL
  MIC: 1.1 µg/mL (≈ 2.59 µM)
[2]
  MIC: 1.49 µg/mL (≈ 3.5 µM)
[3]
  IC50: < 40 nM
[4]
  IC50: < 40 nM
[8]; Trypanosoma brucei
  EC50: 32 nM
[5]
  EC50: 319 nM
[6]
  EC50: 1290 nM

## COc1ccc(-c2cnn3c2CN(Cc2nc4nc(Cl)ccc4[nH]2)CC3)c(Cl)c1 [Compound 2172, 5-chlor0-2-((3-(2-chloro-4-methoxyphenyl)-6,7-dihydropyrazolo[1,5-a]pyrazin-5(4H)-yl)methyl)-1H-imidazo[4,5-b]pyridine]
[7]
  MIC: 1.32 µg/mL (≈ 3.07 µM)
[1]
  (F) S. aureus (ATCC 29213) MIC: 0.898 µg/mL
  MIC: 1.69 µg/mL (≈ 3.94 µM)
[2]
  MIC: 0.467 µg/mL (≈ 1.09 µM)
[3]
  IC50: < 40 nM
[4]
  IC50: < 40 nM
[8]; Trypanosoma brucei
  EC50: 29.3 nM
[8]
  EC50: 35 nM
[5]
  EC50: 213 nM

## COC(=O)Nc1ccc(-c2ccc(OC)cc2Cl)n2cc(Cc3nc4ccc(Cl)cc4[nH]3)nc12 [Compound 2181, methyl N-{2-[(6-chloro-1H-1,3-benzodiazol-2-yl)methyl]-5-(2-chloro-4-methoxyphenyl)imidazo[1,2-a]pyridin-8-yl}carbamate]
[7]
  MIC: 0.822 µg/mL (≈ 1.66 µM)
[2]
  MIC: 0.694 µg/mL (≈ 1.4 µM)
[3]
  IC50: < 40 nM
[4]
  IC50: 52.9 nM
[8]; Trypanosoma brucei
  EC50: 61.1 nM
[5]
  EC50: 538 nM

## COc1ccc(Cc2cn(Cc3nc4nc(Cl)ccc4[nH]3)c(=O)n2CC(C)(C)N)c(Cl)c1 [Compound 2208, 3-(2-amin0-2-methylpropyl)-1-({5-chloro-1H-imidazo[4,5-b]pyridin-2-yl}methyl)-4-[(2-chloro-4-methoxyphenyl)methyl]-2,3-dihydro-1H-imidazol-2-one]
[7]
  MIC: 1.8 µg/mL (≈ 3.79 µM)
[1]
  (F) S. aureus (ATCC 29213) MIC: 1.53 µg/mL
  MIC: 2.4 µg/mL (≈ 5.05 µM)
[2]
  MIC: 0.28 µg/mL (≈ 0.589 µM)
[3]
  IC50: < 40 nM
[4]
  IC50: < 40 nM
[5]
  EC50: 297 nM
[6]
  EC50: > 2000 nM

## CC(C)(N)Cn1c(Cc2ccc(Cl)cc2Cl)cn(Cc2nc3nc(Cl)ccc3[nH]2)c1=O [Compound 2212, 5-(2,4-dichlorobenzyl)-1-(2-amin0-2-methylpropyl)-3-((5-chloro-1H-imidazo[4,5-b]pyridin-2-yl)methyl)-1H-imidazol-2(3H)-one]
[1]
  (F) S. aureus (ATCC 29213) MIC: 1.33, μg/ml and 1.65 μg/ml
  MIC: 1.72 µg/mL (≈ 3.58 µM)
[2]
  (I) E. faecium (ATCC 51559) MIC: 0.426 µg/mL
  MIC: 0.512 µg/mL (≈ 1.07 µM)
[3]
  IC50: < 40 nM
[4]
  IC50: 45.7 nM
[8]; Trypanosoma brucei
  EC50: 3.03 nM
[5]
  EC50: 236 nM
[6]
  EC50: > 2000 nM

## COC(=O)Cn1c(C(O)c2ccc(Cl)cc2Cl)cn(Cc2nc3ccc(Cl)nc3[nH]2)c1=O (centres unmarked) [Compound 2217, methyl 2-(3-((5-chloro-3H-imidazo[4,5-b]pyridin-2-yl)methyl)-5-((2,4-dichlorophenyl)(hydroxy)methyl)-2-oxo-2,3-dihydro-1H-imidazol-1-yl)acetate]
[1]
  (F) S. aureus (ATCC 29213) MIC: 3.12, μg/ml and 3.27 μg/ml
  MIC: > 2.5 µg/mL
[2]
  MIC: 0.691 µg/mL (≈ 1.39 µM)
[3]
  IC50: < 40 nM
[4]
  IC50: 59.3 nM
[8]; Trypanosoma brucei
  EC50: 11.6 nM
[5]
  EC50: 2600 nM
[6]
  EC50: > 2000 nM

## CCNC(=O)Cn1c(C(=O)c2ccc(Cl)cc2Cl)cn(Cc2nc3nc(Cl)ccc3[nH]2)c1=O [Compound 2227, 2-[3-({5-chloro-1H-imidazo[4,5-b]pyridin-2-yl}methyl)-5-(2,4-dichlorobenzoyl)-2-oxo-2,3-dihydro-1H-imidazol-1-yl]—N-ethylacetamide]
[7]
  MIC: 0.482 µg/mL (≈ 0.949 µM)
[1]
  MIC: 1.07 µg/mL (≈ 2.11 µM)
[2]
  MIC: 0.175 µg/mL (≈ 0.345 µM)
[4]
  IC50: < 40 nM
[8]; Trypanosoma brucei
  EC50: < 0.91 nM
[8]
  EC50: 1.47 nM
[5]
  EC50: 819 nM
[6]
  EC50: > 2000 nM

## COc1ccc(-c2cccc3c2CN(Cc2nc4c(C#N)c(Cl)ccc4[nH]2)C3)c(Cl)c1 [Compound 2229, 5-chlor0-2-((4-(2-chloro-4-methoxyphenyl)isoindolin-2-yl)methyl)-1H-benzo[d]imidazole-4-carbonitrile]
[7]
  MIC: 0.762 µg/mL (≈ 1.7 µM)
[1]
  MIC: 0.926 µg/mL (≈ 2.06 µM)
[2]
  MIC: 0.327 µg/mL (≈ 0.728 µM)
[4]
  IC50: 84.7 nM
[8]; Trypanosoma brucei
  EC50: 91.4 nM
[5]
  EC50: 650 nM
[6]
  EC50: 1980 nM

## COc1ccc(-c2cccc3c2CN(Cc2nc4cc(Cl)ccc4[nH]2)C3=O)c(Cl)c1 [Compound 2232, 2-((5-chloro-1H-benzo[d]imidazol-2-yl)methyl)-4-(2-chloro-4-methoxyphenyl)isoindolin-1-one]
[7]
  MIC: 0.448 µg/mL (≈ 1.02 µM)
[2]
  MIC: 0.415 µg/mL (≈ 0.947 µM)
[4]
  IC50: 53.9 nM
[8]; Trypanosoma brucei
  EC50: 71.3 nM
[5]
  EC50: 244 nM
[6]
  EC50: > 2000 nM

## NC(=O)Cn1c(C(=O)c2ccc(Cl)cc2Cl)cn(Cc2nc3ccc(Cl)nc3[nH]2)c1=O [Compound 2234, 2-[3-({5-chloro-1H-imidazo[4,5-b]pyridin-2-yl}methyl)-5-(2,4-dichlorobenzoyl)-2-oxo-2,3-dihydro-1H-imidazol-1-yl]acetamide]
[7]
  MIC: > 8 µg/mL
[2]
  MIC: 1.06 µg/mL (≈ 2.21 µM)
[4]
  IC50: < 40 nM
[8]; Trypanosoma brucei
  EC50: 9.17 nM
[8]
  EC50: 7.98 nM
[5]
  EC50: 2100 nM
[6]
  EC50: > 2000 nM

## CCOC(=O)Nn1c(C(=O)c2ccc(Cl)cc2Cl)cn(Cc2nc3ccc(Cl)nc3[nH]2)c1=O [Compound 2244]
[7]; ATCC33591|MRSA
  MIC: 1.57 µg/mL (≈ 3.08 µM)
[1]
  (F) S. aureus (ATCC 29213) MIC: 2.21 µg/mL
[1]; ATCC29213|MSSA
  MIC: 1.66 µg/mL (≈ 3.26 µM)
[2]
  (I) E. faecium (ATCC 51559) MIC: 0.555 µg/mL
[2]; ATCC51559|VRE
  MIC: 0.531 µg/mL (≈ 1.04 µM)
[4]
  IC50: < 40 nM
[5]
  EC50: 541 nM
[6]
  EC50: > 2000 nM

## COc1ccc(-c2nccc3nn(Cc4nc5nc(Cl)ccc5[nH]4)cc23)c(Cl)c1 [Compound 2247, 2-({5-chloro-1H-imidazo[4,5-b]pyridin-2-yl}methyl)-4-(2-chloro-4-methoxyphenyl)-2H-pyrazolo[4,3-c]pyridine]
[7]
  (G) MRSA (ATCC33591) MIC: 1.58 µg/mL
  MIC: 1.46 µg/mL (≈ 3.43 µM)
[1]
  (F) S. aureus (ATCC 29213) MIC: 1.43 µg/mL
  MIC: 1.18 µg/mL (≈ 2.77 µM)
[2]
  MIC: 1.08 µg/mL (≈ 2.54 µM)
[4]
  IC50: 218 nM
[8]; Trypanosoma brucei
  EC50: 200 nM
[5]
  EC50: 1650 nM
[6]
  EC50: > 2000 nM

Source: patent US11584744B2 (UNIVERSITY OF WASHINGTON, priority 2017, dated 2023)
